The conditions of data set [1]: sum of five 0/1 risk factors, 0 (lack of risk) to 5 (very high multiple risk). The text has this:
The last column corresponds to a risk level score for the safety of these molecules for use in oils such as turbine oils and their alleged cabin toxicity. […] A 0 value indicates a lack of risk, and a 5 value indicates a very high multiple risk. For each risk, a factor 0 or 1 is assigned based on whether the value is above or below a threshold.

For data set [2] the following is noted: European Chemicals Agency website; cited from earlier work.
Data set [3] has as its target T1, BuChE from equine serum (eqBuChE) (Equus caballus, UniProt P81908).
T1 construct: The BuChE freeze-dried from equine serum (eqBuChE, Sigma Aldrich); purchased Sigma Aldrich; host or cells: equine serum (natural source)
Kind of data set: biochemical. It is filed as biochemical. The protocol:
(§1) In the extent that the toxic activity of TCP especially involves its action on cholinesterases, the effect of the compounds used according to the invention, as well as comparative compounds, on two cholinesterases was studied. The required concentration values of each compound to inhibit 50% of the activity of two cholinesterases were measured.
(§2) The acetylthiocholine and butyrylthiocholine iodide, and 5,5-dithiobis (2-nitrobenzoic) acid (DTNB) were purchased from Sigma Aldrich (Steinheim, Germany).
(§3) In the procedure, 100 μL of 0.3 mM DTNB dissolved in phosphate buffer, pH 7.4, were added in 96-well plates, followed by 50 μL solution of the test compound and 50 μL enzyme (final 0.05 U). After 5 minutes of pre-incubation at 25° C., the reaction was initiated by injecting 50 μL of 0.1 mM acetyl or butyryl thiocholine iodide solution. The acetyl or butyryl thiocholine hydrolysis was followed by the formation of yellow 5-thio 2-nitrobenzoate anion as the product of the reaction of DTNB with the thiocholine released by the enzymatic hydrolysis of the acetyl or butyryl thiocholine, at a wavelength of 412 nm, using a microplate reader (Synergy 2, Biotek, Colmar, France). The compounds to be tested were dissolved to 5×10^−3M in analytical grade DMSO. Donepezil or tacrine were used as reference standards. The absorption increase rate at 412 nm was determined 4 minutes after the addition of the acetyl or butyryl thiocholine iodide solution. The tests were carried out with a blank containing all the compounds except the acetyl or butyryl thiocholine in order to take into account non-enzymatic reactions.
(§4) The percentage of inhibition due to the presence of the test compounds was calculated using the following expression: […]
(§5) wherein vi is the rate calculated in the presence of the inhibitor, and v0 is the enzymatic activity.
(§6) All the experiments were carried out in n=3.

The target of data set [4] is T2, human erythrocyte AChE (hAChE) (Homo sapiens, UniProt P22303).
T2 construct: The human erythrocyte AChE (hAChE, aqueous buffer solution); purchased Sigma Aldrich; host or cells: human erythrocytes (natural source)
T2 sequence (P22303 32-617 isoform P22303-2 limits assumed): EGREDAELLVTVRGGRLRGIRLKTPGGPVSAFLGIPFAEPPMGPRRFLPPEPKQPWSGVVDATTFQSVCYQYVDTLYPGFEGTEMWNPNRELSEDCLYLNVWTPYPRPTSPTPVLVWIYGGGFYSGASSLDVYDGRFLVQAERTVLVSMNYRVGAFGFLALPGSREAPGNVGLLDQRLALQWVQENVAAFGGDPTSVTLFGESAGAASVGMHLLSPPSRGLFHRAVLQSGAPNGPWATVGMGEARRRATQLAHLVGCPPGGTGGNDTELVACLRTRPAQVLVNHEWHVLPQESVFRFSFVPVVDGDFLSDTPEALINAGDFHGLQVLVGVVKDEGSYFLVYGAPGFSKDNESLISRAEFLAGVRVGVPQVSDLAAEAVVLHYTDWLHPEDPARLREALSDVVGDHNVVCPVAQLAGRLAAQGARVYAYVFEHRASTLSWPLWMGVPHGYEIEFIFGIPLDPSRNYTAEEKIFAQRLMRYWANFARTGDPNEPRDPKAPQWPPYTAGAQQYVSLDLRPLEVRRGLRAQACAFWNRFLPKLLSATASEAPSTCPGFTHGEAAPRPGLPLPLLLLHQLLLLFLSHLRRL
Put plainly: biochemical. The class given is biochemical. The protocol: as §1, §2, §3, §4, §5, §6

Setting [5] is: equine serum BuChE, Ellman method, 5 min pre-incubation at 25° C., n=3.

Like-named read-outs stand apart in the source and are kept apart here.

T1 sequence (P81908 whole entry): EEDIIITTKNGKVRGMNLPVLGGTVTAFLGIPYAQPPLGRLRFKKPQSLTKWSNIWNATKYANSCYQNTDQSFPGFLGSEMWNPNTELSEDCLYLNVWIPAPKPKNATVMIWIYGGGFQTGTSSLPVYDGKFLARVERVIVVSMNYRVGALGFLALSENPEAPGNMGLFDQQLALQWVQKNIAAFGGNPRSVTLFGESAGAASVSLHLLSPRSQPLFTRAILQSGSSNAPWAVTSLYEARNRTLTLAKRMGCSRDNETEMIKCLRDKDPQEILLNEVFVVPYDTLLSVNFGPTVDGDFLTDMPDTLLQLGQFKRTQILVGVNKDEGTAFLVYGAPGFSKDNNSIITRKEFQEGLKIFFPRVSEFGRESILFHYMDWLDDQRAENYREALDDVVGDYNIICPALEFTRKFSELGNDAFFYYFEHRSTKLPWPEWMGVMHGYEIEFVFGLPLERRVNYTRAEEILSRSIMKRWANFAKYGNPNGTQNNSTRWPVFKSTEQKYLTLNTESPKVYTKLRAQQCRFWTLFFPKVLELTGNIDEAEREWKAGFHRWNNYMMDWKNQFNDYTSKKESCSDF

isononyl diphenylphosphate [Compound Q] yielded a Risk level in data set [1] of 4. In turn, `CC(C)COP(=O)(OCC(C)C)OCC(C)C` [Compound L, Tri(isobutyl)phosphate] had a Risk level in data set [1] of 4. For the same compound, in data set [2], the “ECHA's official data” value is listed as “No CMR, no acute toxicity”. Consider “isododecyl diphenylphosphate [Compound 4]”, for which, in data set [1], the Risk level was determined as 0. On the same count and under the same terms, then `NP(=O)(Oc1ccccc1)Oc1ccccc1` [Compound K, Diphenyl phosphoroamidate], with 4. Compound “Tri(4-isopropylbenzoate)phosphate [Compound G]” displayed a Risk level in data set [1] of 2. Still for that read-out and setting: then `CC(C)(C)c1ccc(OP(=O)(Oc2ccccc2)Oc2ccc(C(C)(C)C)cc2)cc1` [Compound H, di(p-tertbutylphenyl)phenylphosphate], with 3.

Consider Saligenin cresyl phosphate [Compound J], for which the “IC50 eqBuChE” value in data set [3] (setting [5]) was found to be 0.7 µg/mL. In data set [1], this compound registered a Risk level of 4. For the compound `O=P(Oc1c(F)cccc1F)(Oc1c(F)cccc1F)Oc1c(F)cccc1F` [Compound F, Tri(2,6-difluorophenyl)phosphate], in data set [1], the Risk level was not below 3.

Take `CC(C)CCCCCCCOP(=O)(Oc1ccccc1)Oc1ccccc1` [Compound 1, isodecyl diphenylphosphate]: the half-inhibitory concentration (IC50) in data set [4] is 38.4 µM; in data set [3], 93 µM. In data set [1], this compound showed a Risk level of 0. In the case of `CCCCOC(=O)CC(SP(=S)(OCC(CC)CCCC)OCC(CC)CCCC)C(=O)OCCCC` (stereo not shown) [Compound N, Dibutyl [[bis[(2-ethylhexyl)oxy]phosphinothioyl]thio]succinate], the concentration for half-maximal inhibition (IC50) in data set [4] is 33.1 µM; in data set [3], 19 µM. In addition, the Risk level in data set [1] is not below 1. Also, the “ECHA's official data” value in data set [2] is “No CMR, no acute toxicity”.

Take Trixylyl phosphate [Compound E]: the Risk level in data set [1] is given as not below 2. Besides, the “ECHA's official data” value in data set [2] is recorded as “PBT* Reprotoxic”.

`CC(C)(C)c1ccc(OP(=O)(Oc2ccc(C(C)(C)C)cc2)Oc2ccc(C(C)(C)C)cc2)cc1` [Compound I2, Tri(p-tert-butylphenyl)phosphate] registered a Risk level in data set [1] of 3. For `CCCCC(CC)COP(=O)(OCC(CC)CCCC)OCC(CC)CCCC` (stereo not shown) [Compound M, Tris(2-ethylhexyl)phosphate], the IC50 in data set [4] (human erythrocyte AChE, Ellman method, 5 min pre-incubation at 25° C., n=3, read-out: IC50 hAChE (converted)) is 28.1 µM; in data set [3] (equine serum BuChE, Ellman method, 5 min pre-incubation at 25° C., n=3, read-out: IC50 eqBuChE (converted)), 279 µM. Moreover, the Risk level in data set [1] is given as not below 2. In addition, the “ECHA's official data” value in data set [2] is “No CMR, no acute toxicity”.

For `O=P(Oc1ccccc1)(Oc1ccccc1)Oc1ccccc1` [Compound I1, tri phenyl phosphate], the figures for the IC50 in data set [4] and in data set [3] were 33.1 µM and 42.9 µM, respectively. This compound also had a Risk level in data set [1] of 4. In addition, in data set [2], the “ECHA's official data” value is listed as “No CMR, no acute toxicity”. For `Cc1ccccc1OP(=O)(Oc1ccccc1C)Oc1ccccc1C` [Compound B, Tri(ortho-cresyl)phosphate], the Risk level in data set [1] came out at 5. Regarding Tricresyl phosphate [Compound P], the “IC50 hAChE” value in data set [4] (human erythrocyte AChE, Ellman method, 5 min pre-incubation at 25° C., n=3) is 16.9 µg/mL. Besides, the “IC50 eqBuChE” value in data set [3] (setting [5]) stood at 0.7 µg/mL. In data set [1], this compound registered a Risk level of 4. Also, the “ECHA's official data” value in data set [2] is on record as “PBT* Reprotoxic”.

For the compound `CCCCC(CC)COP(=O)(Oc1ccccc1)Oc1ccccc1` (stereo not shown) [Compound A, 2-ethylhexyl diphenylphosphate], the Risk level in data set [1] worked out at 4. For the same compound, in data set [2], the “ECHA's official data” value is reported as “No CMR, no acute toxicity”. Turning to `Cc1ccc(OP(=O)(Oc2ccc(C)cc2)Oc2ccc(C)cc2)cc1` [Compound D, Tri(para-cresyl)phosphate], the Risk level in data set [1] turned out to be 3. Same read-out and setting: then `Cc1cccc(OP(=O)(Oc2cccc(C)c2)Oc2cccc(C)c2)c1` [Compound C, Tri(meta-cresyl)phosphate], with 5.

(Values after US20230183592A1, “[…] ORGANO[…] AS NON-[…]-WEAR AGENTS” (priority 2020, published 2023).)
